Results as given in ChEMBL document CHEMBL1137009, “Inhibition of sphingosine-1-phosphate lyase for the treatment of autoimmune disorders” (J Med Chem, 2009).

What was measured:
[1] = Permeability across human Caco-2 cell membrane at 20 uM; format: ADME, cell-based; settings: read-out: permeability
[2] = Clearance in 129/SvEvBrd x C57BL/6 hybrid mouse at 1 mg/kg, iv; format: ADME, organism-based; design: dose 1 mg/kg, route intravenous; settings: in vivo
[3] = tested on: Mus musculus; assay: Induction of lymphopenia in 129/SvEvBrd x C57BL/6 hybrid mouse assessed as change in circulating lymphocyte level at 100 mg/kg, po administered as single dose after 18 hrs by complete blood count analysis relative to control; format: functional
[4] = Half life in 129/SvEvBrd x C57BL/6 hybrid mouse; format: ADME, organism-based; settings: in vivo
[5] = (§1) AUC (0 to infinity) in 129/SvEvBrd x C57BL/6 hybrid mouse at 10 mg/kg, po; format: ADME, organism-based, Plasma; design: time infinity, dose 10 mg/kg, route oral; settings: 129/SvEvBrd x C57BL/6 hybrid, plasma
[6] = (§2) Oral bioavailability in 129/SvEvBrd x C57BL/6 hybrid mouse at 1 mg/kg, iv and 10 mg/kg, po; format: ADME, organism-based; settings: 129/SvEvBrd x C57BL/6 hybrid, in vivo
[7] = tested on: Mus musculus; assay: Induction of lymphopenia in 129/SvEvBrd x C57BL/6 hybrid mouse assessed as change in circulating lymphocyte level at 30 mg/kg, po administered as single dose after 18 hrs by complete blood count analysis relative to control; format: functional
[8] = tested on: Mus musculus; assay: Toxicity in 129/SvEvBrd x C57BL/6 hybrid mouse at 100 mg/kg, po; format: organism-based; design: dose 100 mg/kg, route oral; settings: in vivo
[9] = tested on: Mus musculus; assay: Induction of lymphopenia in 129/SvEvBrd x C57BL/6 hybrid mouse assessed as reduction in lymphocyte level from peripheral circulation at 10 mg/kg by complete blood count analysis; format: functional; design: scale not given: the % may be the effect or the level left
[10] = tested on: Mus musculus; assay: as §1; format: ADME, organism-based, Plasma; design: time infinity, dose 10 mg/kg, route oral; settings: in vivo
[11] = tested on: Mus musculus; assay: as §2; format: ADME, organism-based; settings: in vivo

Papp at 20 µM [1] [×10⁻⁶ cm/s] | clearance [2] [mL/min/kg] | half-life [4] [h] | AUC(0-inf) [5] [µM·h] | bioavailability [6] [%] | AUC [10] [µM·h] | F [11] [%] | Structure (SMILES) | Activity [3] [%] | Activity [7] [%] | Activity [8] | Activity [9] [%]
14.1 | 11.3 | 0.7 | 3.2 | 5 | – | – | OC[C@@H](O)[C@@H](O)[C@H](O)c1c[nH]c(-c2ncon2)n1 | -16 | – | – | –
11.1 | – | 1 | 4.7 | – | – | – | CC(F)(F)c1nc([C@@H](O)[C@H](O)[C@H](O)CO)c[nH]1 | – | -58 | Toxic | –
9.37 | 7 | 6.2 | 10.8 | 11 | – | – | CC(=O)c1nc([C@@H](O)[C@H](O)[C@H](O)CO)c(C)[nH]1 | -5 | – | – | –
– | – | – | – | – | – | – | CCCCCCCCc1ccc(CCC(N)(CO)CO)cc1 [FINGOLIMOD] | – | – | – | 90
0.9 | 16.6 | 1.2 | 3.4 | – | – | – | OC[C@@H](O)[C@@H](O)[C@H](O)c1c[nH]c(-c2cocn2)n1 | 1 | – | – | –
19.9 | 19.4 | 2.1 | 6.9 | 23 | – | – | Cc1nc(-c2nc([C@@H](O)[C@H](O)[C@H](O)CO)c[nH]2)cs1 | 0 | – | – | –
3.11 | 23.9 | 1.9 | 11.5 | 49.6 | – | – | CC(=O)c1nc([C@@H](O)[C@H](O)[C@H](O)CO)c(-c2ccccc2)[nH]1 | 40 | – | – | –
– | 12.7 | 4.2 | 5.8 | 12 | – | – | OC[C@@H](O)[C@@H](O)[C@H](O)c1c[nH]c(-c2cscn2)n1 | -33 | – | – | –
26.2 | 9.1 | 1.6 | 2.6 | 3 | – | – | Cn1cnc(-c2nc([C@@H](O)[C@H](O)[C@H](O)CO)c[nH]2)c1 | -5 | – | – | –
25.9 | 31.5 | 3.2 | 5.9 | 28 | – | – | OC[C@@H](O)[C@@H](O)[C@H](O)c1c[nH]c(-c2ncc[nH]2)n1 | -53 | – | – | –
1 | – | – | – | – | – | – | OC[C@@H](O)[C@@H](O)[C@H](O)c1c[nH]c(-c2nc[nH]n2)n1 | 7 | – | – | –
9.9 | – | 4 | – | – | 6.7 | 5 | CN(C)C(=O)c1nc([C@@H](O)[C@H](O)[C@H](O)CO)c[nH]1 | – | -11 | – | –
– | 6.8 | 3.3 | 42.7 | 42 | – | – | CO[C@H](c1c[nH]c(C(C)=O)n1)[C@H](O)[C@H](O)CO | 16 | – | – | –
13.4 | 14 | 2.1 | 43.4 | 88 | – | – | CC(=O)c1cccc([C@@H](O)[C@H](O)[C@H](O)CO)n1 | 45 | – | – | –
9 | 8.9 | 2.6 | 3.6 | 5 | – | – | CC(=O)N/N=C(\C)c1nc([C@@H](O)[C@H](O)[C@H](O)CO)c[nH]1 | – | -41 | – | –
– | 13.5 | 4 | 6 | 14 | – | – | O=C(c1ccccc1)c1nc([C@@H](O)[C@H](O)[C@H](O)CO)c[nH]1 | – | -17 | – | –
